SMILES strings stand for the structures. Like-named read-outs stand apart in the source and are kept apart here. Where only a bound is given, the exact number is not on record here.

The test system of assay [1] is sterol biosynthesis in L cells. In words: Inhibition of sterol synthesis from [1-14C]acetate in L cell cultures. The format is cell-based. The settings on record: Mus musculus; for inhibition at 0.1 µM: read-out: inhibition of sterol synthesis. Here is the method:
(§1) The effect of various 15-oxygenated sterols on sterol biosynthesis in L cells and in primary cultures of mouse liver cells was tested essentially under conditions described in detail previously [A. A. Kandutsch and H. W. Chen, J. Biol. Chem., Vol. 248, pp. 8408-8417 (1973) and A. A. Kandutsch and H. W. Chen, J. Biol. Chem., Vol. 249, pp. 6057-6061 (1974`)].
(§2) The primary liver cell cultures were prepared from 16-day-old (C57BL/6J fetuses and grown in chemically defined medium (serum-free) as described in the above cited publications. The L cells, a subline of NCTC clone 929 mouse fibroblasts, were grown in chemically defined medium (serum-free) as described in the publications. These L cells are transformed fibroblasts which are regarded as malignant since they will grow as tumors if injected into the mouse strain from which they were initially obtained.
(§3) The preparation of steroid-containing media, procedures for assays of the conversion of [1-^14 C]acetate into digitonin-precipitable sterols, fatty acids, and CO2 and methods for the measurement of DNA, protein, and HMG-CoA reductase were as described in the published articles. L cell cultures were preincubated with the 15-oxygenated sterols and their derivatives for 4 hours, then [1-^14 C]acetate was added at a concentration of 4 μmoles per ml (4 μCi per ml); or the L cell cultures were incubated for 5 hours with the 15-oxygenated sterols before they were harvested for determination of microsomal HMG-CoA reductase activity.
(§4) The test compounds were tested over a range of at least 4 concentrations and the assay was repeated until the concentration of test compound required to produce 50% inhibition was located on the steeply declining portion of an activity vs. concentration plot. To diminish any possible effects of generalized differences in cellular metabolism, the rates of sterol synthesis from [1-^14 C]acetate were calculated as the ratio of [^14 C]sterols to [^14 C]fatty acids as described in the two cited articles by Kandutsch and Chen.

The test system of assay [2] is sterol biosynthesis in primary cultures of mouse liver cells. The experiment in a line: Inhibition of sterol synthesis from [1-14C]acetate in primary cultures of liver cells. The format is cell-based. The method, then:
as §1, §2, §3
Conditions for incubating the 15-oxygenated sterols or their derivatives with liver cell cultures were similar to those described for L cell cultures except that the cultures were incubated with the test compounds for 12 hours before labeled acetate was added or before they were harvested for enzyme assay.
as §4

Another assay concerns serum cholesterol. The experiment in a line: Effect on serum cholesterol levels in rats, daily subcutaneous injection (Examples 41, 42). It is filed as in vivo, rat (male, Sprague-Dawley). As to conditions: Example 42; for Serum Cholesterol (Mean ± S.E.M.): 5 mg s.c. once a day in triolein. Here is the method:
Male rats of the Sprague-Dawley strain were fed Purina rat chow ad libidum. The rats were maintained on a light (7 A.M.-6 P.M.) -dark (6 P.M.-7 A.M.) cycle throughout the study and for a period of at least 4 days prior to the initiation of the study.
3β-Hexadecanoyloxy-5α-cholest-8(14)-en-15-one (5 mg; dissolved in 0.25 ml of triolein), hereafter referred to as the "palmitate ester", or 3β-hemisuccinoyloxy-5α-cholest-8(14)-en-15-one (5 mg; suspended in 0.25 ml of triolein through the use of a tight-fitting all-glass homogenizer), hereafter referred to as the "hemisuccinate ester", were administered subcutaneously once a day at about 12 P.M. to each of eight and six rats, respectively. Control animals (8) received daily injections of triolein (0.25 ml).
Blood samples were taken from the rats periodically and the serum cholesterol concentrations measured, in duplicate, by the method of Abell et al., J. Biol. Chem., Vol. 195, pp. 357-366 ([…]).
Following generally the procedure described in Example 41, 3β-Ethoxy-14α-ethyl-5α-cholest-7-en-15-one (5 mg) in triolein (0.25 ml) was administered subcutaneously once a day to each of eight rats. Control animals (8) received daily injections of triolein (0.25 ml).
Similarly, 5α-cholest-8(14)-en-3β-ol-15-one (2mg) in (0.2 ml) olive oil or 5.0 mg in 0.5 ml of olive oil) was administered subcutaneously once a day to each of a group of rats. The 2 mg dose was administered to 12 rats, while a like number of rats received daily injections of 0.2 ml olive oil. 5 mg doses were administered to each of 6 rats, while 6 control animals received daily injections of 0.5 ml olive oil. The rats used in this study initially weighed between 110 and 190 grams.

[3] abbreviates: read-out: Concentrations Required for 50% Inhibition of Sterol Synthesis.
The mark [4] stands for this setting: read-out: concentration causing 50% inhibition of sterol synthesis.

For `CC[C@]12C3=CC[C@H]4CC(=O)CC[C@]4(C)[C@H]3CC[C@]1(C)[C@@H]([C@H](C)CCCC(C)C)C[C@@H]2O` [14α-Ethyl-5α-cholest-7-en-15α-ol-3-one, 14α-ethyl-5α-cholest-7-en-15α-ol-3-one], in assay [1] (setting [3]), the IC50 was below 0.1 µM. The inhibition (as a rule, the percentage by which the read-out fell short of the control) at 0.1 µM in assay [1] is around 100%.
Regarding `CC(C)CCC[C@@H](C)[C@H]1C[C@H](O)C2=C3CC[C@H]4C[C@@H](O)CC[C@]4(C)[C@H]3CC[C@@]21C` [5α-Cholest-8(14)-en-3β,15α-diol], the IC50 amounted to 31000 nM in assay [2] (setting [3]) and 3.7 µM in assay [1] (setting [3]).
Take `CC(C)CCC[C@@H](C)[C@H]1C[C@H](O)[C@@H]2C3=CC[C@H]4CC(=O)CC[C@]4(C)[C@H]3CC[C@]12C` [5α,14β-Cholest-7-en-15α-ol-3-one, 5α,14β-cholest-7-en-15α-ol-3-one]: the IC50 in assay [1] (setting [3]) was 2 µM.
On the same count and under the same terms, as for `CCCCCCCCCCCCCCCC(=O)O[C@H]1CC[C@@]2(C)[C@@H](CC=C3[C@@H]2CC[C@]2(C)[C@@H]([C@H](C)CCCC(C)C)C[C@H](O)[C@@]32CC)C1` [3β-hexadecanoyloxy-14α-ethyl-5α-cholest-7-en-15α-ol], the figure is 7 µM; as for `CCCC[C@]12C3=CC[C@H]4C[C@@H](O)CC[C@]4(C)[C@H]3CC[C@]1(C)[C@@H]([C@H](C)CCCC(C)C)C[C@H]2O` [14α-n-Butyl-5α-cholest-7-en-3β,15β-diol, 14α-n-butyl-5α-cholest-7-en-3β,15β-diol], 4.4 µM.
On to `CC[C@@]12C(=O)C[C@H]([C@H](C)CCCC(C)C)[C@@]1(C)CC[C@H]1C2=CC[C@H]2C[C@H](O)CC[C@@]21C` [14α-Ethyl-5α-cholest-7-en-3α-ol-15-one, 14α-ethyl-5α-cholest-7-en-3α-ol-15-one], for which the IC50 in assay [1] (setting [3]) was below 0.1 µM. Further, the inhibition at 0.1 µM in assay [1] is around 100%.
In the case of `CO[C@H]1CC[C@@]2(C)[C@@H](CC=C3[C@@H]2CC[C@]2(C)[C@@H]([C@H](C)CCCC(C)C)CC(=O)[C@@]32C)C1` [3β-methoxy-14α-methyl-5α-cholest-7-en-15-one], the IC50 in assay [1] (setting [3]) stood at 20 µM.
For the compound `CC(C)CCC[C@@H](C)[C@H]1C[C@@H](O)[C@@H]2C3=CC[C@H]4CC(=O)CC[C@]4(C)[C@H]3CC[C@]12C` [5α,14β-Cholest-7-en-15β-ol-3-one, 5α,14β-cholest-7-en-15β-ol-3-one], the IC50 in assay [1] (setting [3]) is 0.25 µM.
As for `CC(C)CCC[C@@H](C)[C@H]1CC(=O)C2=C3CC[C@H]4C[C@H](O)CC[C@]4(C)[C@H]3CC[C@@]21C` [5α-Cholest-8(14)-en-3α-ol-15-one, 5α-cholest-8(14)-en-3α-ol-15-one], the IC50 in assay [1] (L cell cultures, read-out: Concentrations Required for 50% Inhibition of Sterol Synthesis) is 0.5 µM.
For the compound `CCC[C@]12C3=CC[C@H]4C[C@@H](O)CC[C@]4(C)[C@H]3CC[C@]1(C)[C@@H]([C@H](C)CCCC(C)C)C[C@H]2O` [14α-n-Propyl-5α-cholest-7-en-3β,15β-diol, 14α-n-propyl-5α-cholest-7-en-3β,15β-diol], the IC50 in assay [1] (setting [3]) turned out to be 4.1 µM.
The same measure, in the same setting: as for `CCC[C@@]12C(=O)C[C@H]([C@H](C)CCCC(C)C)[C@@]1(C)CC[C@H]1C2=CC[C@H]2C[C@@H](O)CC[C@@]21C` [14α-n-propyl-5α-cholest-7-en-3β-ol-15-one], the figure is 3.4 µM.
As for `CCCC[C@]12C3=CC[C@H]4C[C@@H](O)CC[C@]4(C)[C@H]3CC[C@]1(C)[C@@H]([C@H](C)CCCC(C)C)C[C@@H]2O` [14α-n-Butyl-5α-cholest-7-en-3β,15α-diol, 14α-n-butyl-5α-cholest-7-en-3β,15α-diol], the IC50 in assay [1] (setting [3]) came out at 5 µM.
For `CCO[C@H]1CC[C@@]2(C)[C@@H](CC=C3[C@@H]2CC[C@]2(C)[C@@H]([C@H](C)CCCC(C)C)CC(=O)[C@@]32CC)C1` [3β-ethoxy-14α-ethyl-5α-cholest-7-en-15-one], the “Serum Cholesterol (Mean ± S.E.M.)” value stood at 89.1 ± 2.2 mg per 100 ml in the assay on serum cholesterol (day 0); 77.3 ± 2.1 mg per 100 ml with serum cholesterol (day 6); 80.1 ± 2.3 mg per 100 ml in the assay with serum cholesterol (day 10); 78.5 ± 3.3 mg per 100 ml in the assay with serum cholesterol (day 15); 73.1 ± 2.3 mg per 100 ml with serum cholesterol (day 21); 66.8 ± 2.6 mg per 100 ml in the assay with serum cholesterol (day 27). For the same compound, the “% Reduction (relative to triolein-treated rats)” value with serum cholesterol (5 mg s.c. once a day, day 6) was 4.8%; with serum cholesterol (5 mg s.c. once a day, day 10), 3.4%; with serum cholesterol (5 mg s.c. once a day, day 15), 3.8%; with serum cholesterol (5 mg s.c. once a day, day 21), 11.5%; in the assay on serum cholesterol (5 mg s.c. once a day, day 27), 18.3%. In addition, the “percentage reduction in serum cholesterol levels, mean value (S.E.M.)” value with serum cholesterol (5 mg s.c. once a day, day 27 vs. day 0) was determined as 25.0. Further, the IC50 in assay [1] (setting [3]) is above 22 µM.
Take `CC[C@]12C3=CC[C@H]4C[C@@H](O)CC[C@]4(C)[C@H]3CC[C@]1(C)[C@@H]([C@H](C)CCCC(C)C)C[C@@H]2O` [14α-Ethyl-5α-cholest-7-en-3β,15α-diol, 14α-ethyl-5α-cholest-7-en-3β,15α-diol]: the IC50 in assay [2] (setting [3]) was determined as 60 nM; in assay [2] (setting [4]), 60 nM; in assay [1] (setting [4]) it was 0.05 µM.
As to `CCC[C@]12C3=CC[C@H]4C[C@@H](O)CC[C@]4(C)[C@H]3CC[C@]1(C)[C@@H]([C@H](C)CCCC(C)C)C[C@@H]2O` [14α-n-Propyl-5α-cholest-7-en-3β,15α-diol, 14α-n-propyl-5α-cholest-7-en-3β,15α-diol], in assay [1] (setting [3]), the IC50 was determined as 1.1 µM.
Consider `CCO[C@H]1CC[C@@]2(C)[C@@H](CC=C3[C@@H]2CC[C@]2(C)[C@@H]([C@H](C)CCCC(C)C)CC(O)[C@@]32CC)C1` (stereo partly drawn) [3β-Ethoxy-14α-ethyl-5α-cholest-7-en-15-ol], for which the IC50 was determined as 4300 nM in assay [2] (setting [3]) and 0.7 µM in assay [1] (setting [3]).
`CCCC[C@@]12C(=O)C[C@H]([C@H](C)CCCC(C)C)[C@@]1(C)CC[C@H]1C2=CC[C@H]2C[C@@H](O)CC[C@@]21C` [14α-n-Butyl-5α-cholest-7-en-3β-ol-15-one, 14α-n-butyl-5α-cholest-7-en-3β-ol-15-one]: the IC50 in assay [1] (setting [3]) was 8.3 µM.
As for `CC[C@]12C3=CC[C@H]4C[C@@H](O)CC[C@]4(C)[C@H]3CC[C@]1(C)[C@@H]([C@H](C)CCCC(C)C)C[C@H]2O` [14α-Ethyl-5α-cholest-7-en-3β,15β-diol, 14α-ethyl-5α-cholest-7-en-3β,15β-diol], the figures for the IC50 in assay [2] (setting [3]) and in assay [1] (setting [3]) were 800 nM and 0.4 µM, respectively.
As for `CCCCCCCCCCCCCCCC(=O)O[C@H]1CC[C@@]2(C)[C@@H](CC=C3[C@@H]2CC[C@]2(C)[C@@H]([C@H](C)CCCC(C)C)C[C@@H](O)[C@@]32CC)C1` [3β-hexadecanoyloxy-14α-ethyl-5α-cholest-7-en-15β-ol], in assay [1] (setting [3]), the IC50 is above 15.1 µM.

The record behind these values is patent US4202891A, “15-Oxygenated sterol compounds and the use of such compounds to inhibit the biosynthesis of sterols” (priority 1977, dated 1980).
